Laboratory results as given in US20070140897A1, “PH STABLE BIGUANIDE COMPOSITION AND METHOD OF TREATMENT AND PREVENTION OF INFECTIONS” (priority 2005, published 2007).
≈ marks a conversion by molar mass, not a printed value.

Legend:
[1] = Loss of Alexidine due to non-specific binding to glass vial at different pH; assay type: physicochemical; conditions: 20 ppm, two weeks
Method: Alexidine sample solutions (20 ppm) were prepared at different pHs and quantitative amount were stored in glass vial for two weeks. At the end of storage, the sample solution was removed and thoroughly rinsed with distilled water. The empty sample vials were then rinsed with 0.1 N HCl solution. The concentration of Alexidine in the acid solution was determined by HPLC assay and the amount recovered from glass wall was calculated in Table 1.

[2] = Anterior ocular and systemic pharmacokinetics after repeated topical ocular administration (TID, 10 doses); assay type: in vivo, male New Zealand Composite rabbits; conditions: for AUC(0-24) / DNAUC(0-24) / Cmax / Tmax: TID dosing (dose 10), 10 μg/eye; for Cmax / Tmax: topical or ocular, 10 ug
Method: This study was to investigate anterior ocular and systemic pharmacokinetics of alexidine following repeated topical ocular administration (3 doses/day; 10 doses total) of a 100 ppm solution to male New Zealand Composite rabbits.
This study was carried out using a non-crossover design and a total of 52 naïve male New Zealand Composite rabbits. Each animal (fed) received a topical ocular dose of alexidine at approximately 7 am, 12 noon and 5 pm on Day 1, Day 2 and Day 3. On the morning of Day 4, each animal received the final (10th) topical ocular dose. For each dose administration, animals received approximately 100 μL of a 100 ppm solution (10 μg dose) as a topical instillation into the conjunctival sac of each eye using a positive-displacement pipette.
On Day 4, rabbits (n=4 per collection time) were euthanized and the eyes enucleated and dissected. Samples of blood (centrifuged to obtain plasma), tear, conjunctiva, cornea, and aqueous humor were obtained from both eyes of each animal. Samples were collected prior to administration of the final dose, and 5, 15, and 30 min and 1, 2, 4, 8, 24, 32, 48, 56, and 72 hr after dosing. Non-compartmental methods were used for pharmacokinetic analysis of concentration versus time data. Due to the destructive sampling regimen employed in this study average composite data were used in the pharmacokinetic analysis.
Abbreviations used in this diagram are as follows. Cmax is defined as the maximum mean concentration attained after topical instillation (±SD). Tmax is the time that Cmax was observed.

[3] = Pharmacokinetics after single topical ocular dose 10 μg/eye (BL06029); assay type: in vivo, rabbit; conditions: single dose 10 μg/eye (BL06029); for Cmax / Tmax: rabbit, topical or ocular, 10 ug
[4] = tested on: acantamoeba cysts and trophazoites; conditions: cited from earlier work
Acanthamoeba keratitis = conditions: case report, recurrence in corneal graft; cited from earlier work
Aspergillus keratitis = conditions: 0.02%; cited from earlier work
Fusarium Keratomycosis = conditions: 0.02% solution, rabbit model; cited from earlier work
[5] = male, New Zealand Composite, rabbit, Conjunctiva
[6] = male, New Zealand Composite, rabbit, Cornea

For `CCCCC(CC)CNC(=N)NC(=N)NCCCCCCNC(=N)NC(=N)NCC(CC)CCCC` (stereo not drawn) [Alexidine, 1,1′-hexamethylene-bis[5-(2-ethylhexyl)biguanide]], the “% Adsorbed on Glass Vial” value ([1]; pH 3) was 1.0%, the “% Adsorbed on Glass Vial” value ([1]; pH 5) was 4.0% and the “% Adsorbed on Glass Vial” value ([1]; pH 7) was 7.5%. The “% Adsorbed on Glass Vial” value ([1]; pH 9) was 12.5%, the “% Adsorbed on Glass Vial” value ([1]; pH 11) was 23.5% and the “AUC(0-24)” value ([2]; Conjunctiva) was 11461 µg·min/g. For the same compound, the “DNAUC(0-24)” value ([2]; Conjunctiva) was 1146 (min · ug/g) ÷ ug, the “AUC(0-24)” value ([2]; Cornea) was 2727 µg·min/g and the “DNAUC(0-24)” value ([2]; Cornea) was 273 (min · ug/g) ÷ ug. For the same compound, the “mean concentrations in conjunctiva” value ([2]; at all times through the 72 hr after the final 10-μg dose) was no less than 5100 ng/g, the AUC(0-t) ([2]; male, New Zealand Composite, rabbit, conjunctiva, topical, repeated administration of a 10-μg dose, value used for AUC:MIC90 ratio, read-out: AUC(0-24)) was 191 µg·h/mL and the Cmax [2, 5] was 15100 ± 4120 ng/g. It also gave a Tmax [2, 5] of 5 min, a Cmax [2, 6] of 3740 ± 1790 ng/g and a Tmax [2, 6] of 30 min. The tolerability ([2]; repeated administration of a 100 ppm solution, topical ocular) was “well tolerated in all animals”, the “levels in aqueous humor” value ([3]; Aq. Humor) was “No Quantifiable levels (<0.5 ng/mL)” and the “AUC(0-24)” value ([3]; Conjunctiva) was 5697 µg·min/g. The “DNAUC(0-24)” value ([3]; Conjunctiva) was 570 (min · ug/g) ÷ ug, the “AUC(0-24)” value ([3]; Cornea) was 557 µg·min/g and the “DNAUC(0-24)” value ([3]; Cornea) was 55.7 (min · ug/g) ÷ ug. For the same compound, the levels in plasma ([3]; Plasma) was “No Quantifiable levels (<0.5 ng/mL)”, the Cmax ([3]; Conjunctiva) was 6440 ng/g and the Tmax ([3]; Conjunctiva) was 480 min. For the same compound, the Cmax ([3]; Cornea) was 997 ng/g, the Tmax ([3]; Cornea) was 15 min and the minimum inhibitory concentration [4] was 6.3 µg/mL (≈ 12.4 µM).
For poly(hexamethylene biguanide) [PHMB], the “treatment of recurrences of Acanthamoeba keratitis” value (Acanthamoeba keratitis) is given as “successfully treated”, the “effectiveness in experimental Aspergillus keratitis” value (Aspergillus keratitis) is given as “moderately effective” and the reducing fungal growth (Fusarium Keratomycosis) is given as “effective at reducing fungal growth”.
